In ChEMBL document CHEMBL1145818, “Effect of detergent on "promiscuous" inhibitors” (J Med Chem, 2003):

Legend:
[1] = target: Chymotrypsinogen A (Bos taurus) (UniProt P00766); test: Concentration required for the inhibition of Chymotrypsinogen
[2] = target: T1, Dihydrofolate reductase (Homo sapiens) (UniProt P00374); test: Concentration required for the inhibition of dihydrofolate reductase
T1 sequence (whole entry): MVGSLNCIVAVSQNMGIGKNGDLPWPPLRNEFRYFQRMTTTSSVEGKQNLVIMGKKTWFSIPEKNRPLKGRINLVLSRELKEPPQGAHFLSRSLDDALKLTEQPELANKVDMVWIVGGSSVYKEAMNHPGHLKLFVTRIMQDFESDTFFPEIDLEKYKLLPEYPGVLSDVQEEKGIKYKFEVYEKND

**Q.** What does the source list for `Nc1c(/N=N/c2ccc(-c3ccc(/N=N/c4cc(S(=O)(=O)O)c5ccccc5c4N)cc3)cc2)cc(S(=O)(=O)O)c2ccccc12`?
**A.** Concentration [1]: 40 µM; Concentration [2]: 0.4 µM
